Experimental data taken from patent US20150051144A1, “COMPOUNDS FOR THE TREATMENT OF DYSLIPIDEMIA AND OTHER DISEASES” (Cadila Healthcare Limited, priority 2012, published 2015).

Biological target: PCSK9 (Homo sapiens, UniProt Q8NBP7)
Assay: PCSK9-LDLR in vitro Binding Assay (solid phase, ELISA readout)
Conditions: for inhibition at 10 µM: test compound concentration 10 μM; for inhibition at 100 µM: test compound concentration 100 μM
Description: The PCSK9-LDLR in vitro Binding Assay is a quantitative solid phase binding assay between PCSK9 and recombinant LDLR. Plates were pre-coated with a recombinant LDLR-AB domain, which binds PCSK9. Test compound at different concentration was added to the PCSK9 and added to LDLR immobilized on the wells. The amount of bound PCSK9 is measured by binding it with biotinylated anti-His-tag monoclonal antibody, followed by binding with horseradish peroxidase conjugated streptavidin substrate. The color was quantified by ELISA reader at […] which reflects the relative amount of PCSK9 that binds to LDLR in presence and absence of the inhibitor.

Chain of PCSK9 (Q8NBP7 153-692): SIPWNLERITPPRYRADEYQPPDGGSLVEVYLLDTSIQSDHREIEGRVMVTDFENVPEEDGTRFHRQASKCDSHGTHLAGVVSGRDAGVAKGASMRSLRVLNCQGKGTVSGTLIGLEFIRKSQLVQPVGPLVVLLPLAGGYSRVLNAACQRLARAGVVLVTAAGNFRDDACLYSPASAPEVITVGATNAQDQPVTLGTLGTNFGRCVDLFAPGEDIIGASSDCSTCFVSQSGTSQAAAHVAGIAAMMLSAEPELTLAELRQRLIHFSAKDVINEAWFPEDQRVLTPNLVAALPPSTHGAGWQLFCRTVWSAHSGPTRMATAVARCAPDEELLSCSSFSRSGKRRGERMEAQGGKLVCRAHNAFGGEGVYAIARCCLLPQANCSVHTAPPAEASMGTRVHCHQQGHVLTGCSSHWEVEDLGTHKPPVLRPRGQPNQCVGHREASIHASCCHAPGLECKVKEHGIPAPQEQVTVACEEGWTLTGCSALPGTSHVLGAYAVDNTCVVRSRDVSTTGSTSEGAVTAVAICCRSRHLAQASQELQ
Chain of PCSK9 (Q8NBP7 31-152 partner limits assumed): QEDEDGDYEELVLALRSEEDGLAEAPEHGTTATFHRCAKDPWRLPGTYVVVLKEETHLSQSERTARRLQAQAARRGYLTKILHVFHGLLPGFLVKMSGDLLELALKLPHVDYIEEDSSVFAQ

Row | SMILES | inhibition at 10 µM [%] | inhibition at 100 µM [%]
1 | O=C(COc1ccc(C(Cc2ccccc2)=NOCc2ccc(C(F)(F)F)cc2)cc1)N1CCOCC1 [Example 4, 1-Morpholino-2-(4-(2-phenyl-1-(((4-(trifluoromethyl)benzyl)oxy)imino)ethyl)phenoxy)ethanone] | 31 | 62
2 | O=C(COc1ccc(C(Cc2ccccc2)=NOCc2ccc(OC(F)(F)F)cc2)cc1)N1CCOCC1 [Example 35, 1-morpholino-2-(4-(2-phenyl-1-(((4-(trifluoromethoxy)benzyl)oxy)imino)ethyl)phenoxy)ethanone] | 26 | 42
3 | Cc1ccc(CON=C(Cc2ccccc2)c2ccc(OCC(=O)N3CCOCC3)c(C)c2)cc1 [Example 26, 2-(2-Methyl-4-(1-(((4-methylbenzyl)oxy)imino)-2-phenylethyl)phenoxy)-1-morpholinoethanone] | 32 | 44
4 | CN1CCN(C(=O)COc2ccc3c(c2)CCCC3=NOCc2ccc(C(F)(F)F)cc2)CC1 [Example 56, 1-(4-methylpiperazin-1-yl)-2-((5-(((4-(trifluoromethyl)benzyl)oxy)imino)-5,6,7,8-tetrahydronaphthalen-2-yl)oxy)ethanone] | 63 | 66
5 | COc1ccc(CON=C(Cc2ccccc2)c2ccc(OCC(=O)N3CCCCC3)c(C)c2)cc1 [Example 40, 2-(4-(1-(((4-methoxybenzyl)oxy)imino)-2-phenylethyl)-2-methylphenoxy)-1-(piperidin-1-yl)ethanone] | 24 | 50
6 | CCC(=NOCc1ccc(C(F)(F)F)cc1)c1ccc(OCC(=O)Nc2cc(C)nn2C)cc1 [Example 22, N-(1,3-Dimethyl-1H-pyrazol-5-yl)-2-(4-(1-(((4-(trifluoromethyl)benzyl)oxy)imino)propyl)phenoxy)acetamide] | 35 | 60
7 | O=C(COc1ccc2c(c1)CCCC2=NOCc1ccc(C(F)(F)F)cc1)NN1CCOCC1 [Example 57, N-morpholino-2-((5-(((4-(trifluoromethyl)benzyl)oxy)imino)-5,6,7,8-tetrahydronaphthalen-2-yl)oxy)acetamide] | 50 | 59
8 | CCC(=NOCc1nc(-c2ccccc2)oc1C)c1ccc(OCC(=O)N2CCN(C)CC2)cc1 [Example 50, 2-(4-(1-(((5-methyl-2-phenyloxazol-4-yl)methoxy)imino)propyl)phenoxy)-1-(4-methylpiperazin-1-yl)ethanone] | 22 | 42
9 | CC(C)(C)OC(=O)N1CCC(ONC(=O)COc2ccc3c(c2)CCCC3=NOCc2ccc(C(F)(F)F)cc2)CC1 [Example 62, tert-butyl 4-((2-((5-(((4-(trifluoromethyl)benzyl)oxy)imino)-5,6,7,8-tetrahydronaphthalen-2-yl)oxy)acetamido)oxy)piperidine-1-carboxylate] | 57 | 73
10 | Cc1cc(C(Cc2ccsc2)=NOCc2ccc(C(F)(F)F)cc2)ccc1OCC(=O)N1CCOCC1 [Example 10, 2-(2-Methyl-4-(2-(thiophen-3-yl)-1-(((4-(trifluoromethyl)benzyl)oxy)imino)ethyl)phenoxy)-1-morpholinoethanone] | 21 | 53
11 | O=C(COc1ccc2c(c1)CCCC2=NOCc1ccc(C(F)(F)F)cc1)Nc1nc2cc(Cl)ccc2o1 [Example 59, N-(5-chlorobenzo[d]oxazol-2-yl)-2-((5-(((4-(trifluoromethyl)benzyl)oxy)imino)-5,6,7,8-tetrahydronaphthalen-2-yl)oxy)acetamide] | 49 | 79
12 | CN1CCN(C(=O)COc2ccc(C(Cc3ccccc3)=NOCc3ccc(C(F)(F)F)cc3)cc2)CC1 [Example 6, 1-(4-Methylpiperazin-1-yl)-2-(4-(2-phenyl-1-(((4-(trifluoromethyl)benzyl)oxy)imino)ethyl)phenoxy)ethanone] | 49 | –
13 | O=C(COc1ccc(C(Cc2ccccc2)=NOCc2ccccc2)cc1)N1CCOCC1 [Example 25, 2-(4-(1-((Benzyloxy)imino)-2-phenylethyl)phenoxy)-1-morpholinoethanone] | 27 | 40
14 | CCC(=NOCCn1ccc2ccccc21)c1ccc(OCC(=O)N2CCN(C)CC2)cc1 [Example 46, 2-(4-(1-((2-(1H-indol-1-yl)ethoxy)imino)propyl)phenoxy)-1-(4-methylpiperazin-1-yl)ethanone] | 27 | 59
15 | CCC(=NOCc1ccc(C(F)(F)F)cc1)c1ccc(OCC(=O)N(CCO)c2ccccc2)cc1 [Example 20, N-(2-Hydroxyethyl)-N-phenyl-2-(4-(1-(((4-(trifluoromethyl)benzyl)oxy)imino)propyl)phenoxy)acetamide] | 20 | 54
16 | O=C(COc1ccc2c(c1)CCCC2=NOCc1ccc(C(F)(F)F)cc1)N1CCCCC1 [Example 54, 1-(piperidin-1-yl)-2-((5-(((4-(trifluoromethyl)benzyl)oxy)imino)-5,6,7,8-tetrahydronaphthalen-2-yl)oxy)ethanone] | 40 | 62
17 | Cc1ccnc(NC(=O)COc2ccc3c(c2)CCCC3=NOCc2ccc(C(F)(F)F)cc2)n1 [Example 60, N-(4-methylpyrimidin-2-yl)-2-((5-(((4-(trifluoromethyl)benzyl)oxy)imino)-5,6,7,8-tetrahydronaphthalen-2-yl)oxy)acetamide] | 61 | 91
18 | COc1ccc(CON=C(Cc2ccccc2)c2ccc(OCC(=O)N3CCOCC3)c(C)c2)cc1 [Example 36, 2-(4-(1-(((4-methoxybenzyl)oxy)imino)-2-phenylethyl)-2-methylphenoxy)-1-morpholinoethanone] | 22 | 40
19 | O=C(COc1ccc(C(Cc2ccccc2)=NOCc2ccc(C(F)(F)F)cc2)cc1)NN1CCOCC1 [Example 9, N-Morpholino-2-(4-(2-phenyl-1-(((4-(trifluoromethyl)benzyl)oxy)imino)ethyl)phenoxy)acetamide] | 53 | 33
20 | CCC(=NOCc1ccc(C(F)(F)F)cc1)c1ccc(OCC(=O)N2CCCCC2)cc1 [Example 15, 1-(Piperidin-1-yl)-2-(4-(1-(((4-(trifluoromethyl)benzyl)oxy)imino)propyl)phenoxy)ethanone] | 32 | 64
21 | O=C(COc1ccc2c(c1)CCCC2=NOCc1ccc(C(F)(F)F)cc1)NN1CCCCC1 [Example 58, N-(piperidin-1-yl)-2-((5-(((4-(trifluoromethyl)benzyl)oxy)imino)-5,6,7,8-tetrahydronaphthalen-2-yl)oxy)acetamide] | 50 | 53
22 | CC(=NOCc1ccc(C(F)(F)F)cc1)c1ccc(OCC(=O)N2CCOCC2)cc1 [Example 11, 1-Morpholino-2-(4-(1-(((4-(trifluoromethyl)benzyl)oxy)imino)ethyl)phenoxy)ethanone] | 26 | 57
23 | Cc1cc(C(Cc2ccccc2)=NOCc2ccc(OC(F)(F)F)cc2)ccc1OCC(=O)N1CCOCC1 [Example 34, 2-(2-methyl-4-(2-phenyl-1-(((4-(trifluoromethoxy)benzyl)oxy)imino)ethyl)phenoxy)-1-morpholinoethanone] | 25 | 46
24 | Cc1cc(C(Cc2ccccc2)=NOCc2ccc(C(F)(F)F)cc2)ccc1OCC(=O)N1CCOCC1 [Example 1, 2-(2-Methyl-4-(2-phenyl-1-(((4-(trifluoromethyl)benzyl)oxy)imino)ethyl)phenoxy)-1-morpholinoethanone] | 50 | 51
25 | Cc1cc(C(Cc2ccccc2)=NOCc2ccc(C(F)(F)F)cc2)ccc1OCC(=O)NCC(=O)N1CCOCC1 [Example 3, 2-(2-Methyl-4-(2-phenyl-1-(((4-(trifluoromethyl)benzyl)oxy)imino)ethyl)phenoxy)-N-(2-morpholino-2-oxoethyl)acetamide] | 32 | 38
26 | [C-]#[N+]c1ccccc1NC(=O)COc1ccc2c(c1)CCCC2=NOCc1ccc(C(F)(F)F)cc1 [Example 63, N-(2-isocyanophenyl)-2-((5-(((4-(trifluoromethyl)benzyl)oxy)imino)-5,6,7,8-tetrahydronaphthalen-2-yl)oxy)acetamide] | 48 | 58
27 | CCC(=NOCc1ccc(C(F)(F)F)cc1)c1ccc(OCC(=O)N2CCOCC2)cc1 [Example 13, 1-Morpholino-2-(4-(1-(((4-(trifluoromethyl)benzyl)oxy)imino)propyl)phenoxy)ethanone] | 52 | 54
28 | CC(C)(C)OC(=O)N1CCC(ONC(=O)COc2ccc(C(Cc3ccccc3)=NOCc3ccc(C(F)(F)F)cc3)cc2)CC1 [Example 8, tert-Butyl 4-((2-(4-(2-phenyl-1-(((4-(trifluoromethyl)benzyl)oxy)imino)ethyl)phenoxy)acetamido)oxy)piperidine-1-carboxylate] | 50 | 52
